Patent publication US20170022260A9 (Sanofi, priority 2013, published 2017)
≈ marks a conversion by molar mass, not a printed value.

Assays:
physchem = format: physicochemical
Procedure: Prior to the testing of solubility and stability of a peptide batch, its content was determined Therefore, two parameters were investigated, its purity (HPLC-UV) and the amount of salt load of the batch (ion chromatography).
. Therefore, solutions from solid samples were prepared in different buffer systems with a concentration of 1.0 mg/mL compound based on the previously determined content. HPLC-UV was performed after 2 h of gentle agitation from the supernatant, which was obtained by 20 min of centrifugation at 4000 rpm.
This analysis also served as starting point (t0) for the stability testing.
As HPLC/UPLC method, method D or E has been used.

[1] = test system: Female diabetic dbdb-mice; assay: Glucose lowering in female diabetic dbdb-mice; format: in vivo; settings: 100 μg/kg s.c.
Procedure: Female diabetic dbdb-mice (BKS.Cg-+Leprdb/+Leprdb/OlaHsd) 10 weeks of age at study start were used. Mice were habituated to feeding and housing conditions for at least 2 weeks. 7 days prior to study start, HbA1c were determined to allocate mice to groups, aiming to spread low, medium and high HbA1c-values and in consequence the group-means (n=8), as equally as possible. On the day of study, food was removed, directly before sampling for baseline glucose assessment (t=0 min) Immediately afterwards, compounds or vehicle (phosphor buffered saline, PBS) were administered subcutaneously, 100 μg/kg, 10 ml/kg. Afterwards, blood samples were drawn by tail tip incision at 15, 30, 60, 90, 120, 150, 180, 240, 360, 480 min and 24 h. Food was re-offered after the 480 min-sampling.
Data were analysed by 2-W-ANOVA on repeated measurements, followed by Dunnett's test as post-hoc assessment, level of significance p<0.05.

solubility at 2 h (physchem; pH 4.5, solubility pH 4.5) [µg/mL]	solubility at 2 h (physchem; pH 7.4, solubility pH 7.4) [µg/mL]	Compound	reduction of glucose compared to vehicle control, statistical significance ([1]; female db/db-mice, p<0.05, 2-way-ANOVA, Dunnett's post-hoc test)	maximal effect, glucose reduction ([1]; non-fasted female db/db-mice, change from baseline (baseline on average 28 mmol/l)) [mmol/1]
934 (≈ 223 µM)	> 1000	CC[C@H](C)[C@H](NC(=O)[C@H](CC(C)C)NC(=O)[C@H](Cc1c[nH]c2ccccc12)NC(=O)[C@H](CCC(=O)O)NC(=O)[C@@H](NC(=O)[C@H](Cc1ccccc1)NC(=O)[C@H](CCC(=O)O)NC(=O)[C@H](CCCCN)NC(=O)[C@H](C)NC(=O)[C@H](CCCNC(=N)N)NC(=O)[C@H](CCC(N)=O)NC(=O)[C@H](CCC(=O)O)NC(=O)[C@H](CC(=O)O)NC(=O)[C@H](CC(C)C)NC(=O)[C@H](CCC(N)=O)NC(=O)[C@H](CCCCN)NC(=O)[C@H](CO)NC(=O)[C@H](CC(C)C)NC(=O)[C@H](CC(=O)O)NC(=O)[C@H](CO)NC(=O)[C@@H](NC(=O)[C@H](Cc1ccccc1)NC(=O)[C@@H](NC(=O)CNC(=O)[C@H](CCC(N)=O)NC(=O)[C@H](CO)NC(=O)[C@@H](N)Cc1c[nH]cn1)[C@@H](C)O)[C@@H](C)O)[C@@H](C)CC)C(=O)N[C@@H](C)C(=O)NCC(=O)NCC(=O)N1CCC[C@H]1C(=O)N[C@H](C(=O)N[C@@H](CO)C(=O)NCC(=O)N[C@@H](C)C(=O)N1CCC[C@H]1C(=O)N1CCC[C@H]1C(=O)N1CCC[C@H]1C(=O)N[C@@H](CO)C(N)=O)C(C)C [SEQ ID NO: 6, HSQGTFTSDLSKQLDEQRAKEFIEWLIAGGPVSGAPPPS-NH2]	–	–
–	–	H-Aib-HGTFTSDLSKQLDEQRAKDFIEWLIAGGPSSGAPPPS-NH2 [SEQ ID NO: 10]	statistical significant reduction of glucose compared to vehicle control from t=60 min until 240 min	~12
